Results taken from patent EP3925949A1, “AZIDO COMPOUNDS AND METHOD FOR MONITORING ACID CERAMIDASE ACTIVITY IN INTACT CELLS USING THEM” (Consejo Superior de Investigaciones Científicas (CSIC), priority 2020, dated 2021).

Experiments:
[1] = biological target: T1, alkaline ceramidases 1 (ACER1) (Homo sapiens, UniProt Q8TDN7); assay: Hydrolysis of RBM5-177 by microsomes of ACER1 overexpressing cells, UPLC-HRMS; format: biochemical; conditions: microsomes from ACER1 overexpressing cells, RBM5-177 5 µM, 30 min
T1 construct: expressed in transfected cells; host or cells: HeLa T-Rex ACER1-TET-ON, tetracycline-induced; microsomes
T1 sequence (Q8TDN7 1-264): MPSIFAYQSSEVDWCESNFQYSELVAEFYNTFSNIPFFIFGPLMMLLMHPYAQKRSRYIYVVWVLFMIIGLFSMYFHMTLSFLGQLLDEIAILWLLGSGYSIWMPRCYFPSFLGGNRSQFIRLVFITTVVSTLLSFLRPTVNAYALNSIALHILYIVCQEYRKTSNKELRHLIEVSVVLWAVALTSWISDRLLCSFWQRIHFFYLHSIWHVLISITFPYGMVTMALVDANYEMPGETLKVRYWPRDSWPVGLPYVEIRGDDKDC
Protocol: Cell lysates obtained from HeLa T-Rex ACER1-TET-ON, HeLa T-Rex ACER2-TET-ON and MEF5 overexpressing ACER3 cells were transferred to ultracentrifuge tubes and were spun at 100000 g for 1 h at 4°C. Pellets were resuspended in a 0.25 M saccharose solution and protein concentration was determined as specified below.
Cells were seeded at 5 × 10^5 cells/mL into 6 well plates (1 mL/well) and were allowed to adhere for 24 h. Medium was replaced with fresh medium containing RBM5-177, RBM5-019 or RBM2-37 (5 µM final concentration). After 30 min, medium was removed; cells were washed with 400 µL PBS and harvested with 400 µL Trypsin-EDTA and 600 µL of medium. NC recombinant enzyme, lysates from A375-AC overexpressing cells, MEF5 or microsomes from HeLa T-Rex ACER1-TET-ON and HeLa T-Rex […] activity buffer. Cell pellets were resuspended with 100 µL of H2O and mixed with 750 µL of methanol: chloroform, 2:1. Samples were heated at 48°C overnight and next day, 75 µL of 1 M KOH in methanol were added, followed by 2 h incubation at 37°C. Afterwards, the saponification was neutralised with 75 µL of 1 M acetic acid and solvent was removed using a Speed Vac Savant SPD131 DDA (Thermo Scientific). […]

[2] = biological target: T2, acid ceramidase (AC) (Homo sapiens, UniProt Q13510); assay: AC activity-dependence of labelling (fluorescence confocal microscopy); format: cell-based; parameters: expressed in transfected cells; host or cells: FD/AC (overexpressing AC); conditions: FD/AC cells, SOCLAC 5 µM 1 h pretreatment, RBM5-177 5 µM 4 h
T2 sequence (Q13510 143-395 limits assumed): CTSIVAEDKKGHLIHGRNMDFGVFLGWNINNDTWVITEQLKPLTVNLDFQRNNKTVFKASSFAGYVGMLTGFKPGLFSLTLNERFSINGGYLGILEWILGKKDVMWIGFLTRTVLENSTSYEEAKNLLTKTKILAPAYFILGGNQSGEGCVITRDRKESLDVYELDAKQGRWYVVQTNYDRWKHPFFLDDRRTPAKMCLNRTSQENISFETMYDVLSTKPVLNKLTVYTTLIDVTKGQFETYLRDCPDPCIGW
T2 sequence (Q13510 22-142 limits assumed): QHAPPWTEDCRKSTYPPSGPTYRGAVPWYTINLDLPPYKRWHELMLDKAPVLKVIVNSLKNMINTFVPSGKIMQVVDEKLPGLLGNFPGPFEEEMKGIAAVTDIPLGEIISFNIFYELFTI
Protocol: Cells were seeded at 1 × 10^5 cells/mL on glass-bottom plates and allowed to adhere for 24 h. For golgi staining, cells were incubated with 40 µL/well of CellLight Golgi-RFP BacMam 2.0 for 24 h. […] After this time, the medium was replaced with fresh medium containing CO-1 (1 µM final concentration), and cells were incubated for 10 min. Then cells were washed 3 times with DMEM for 5 min at 37 °C, 75 nM LysoTracker Red DND-99 or 75 nM Mitotracker in phenol red-free DMEM was added to stain lysosomes or mitochondria, and cells were kept in the incubator for microscope analysis. Staining was viewed with a Zeiss LSM 880 confocal microscope or Leica TCS SP8-Hyvolution. Image analysis was performed using Fiji software.^[7] To measure the Manders's and Pearson's coefficients a threshold including organelles and discarding the background was set. Co-localization coefficients were measured using the JaCoP plugin (S. Bolte et al. J. Microsc. 2006, 224, 213-232) on the different stacks of images (at least n=4) with each stack containing 3-10 cells.

| effect on lysosome labelling by RBM5-177/CO-1 [2] | SMILES | RBM5-19 formation (hydrolysis as substrate) [1] |
| --- | --- | --- |
| – | CCCCCCCC(=O)N[C@@H](C)[C@H](O)CCCCCCCCCCCCN=[N+]=[N-] [RBM5-177, N-((2S,3R)-15-azido-3-hydroxypentadecan-2-yl)octanamide] | transformed into the free amine only by AC |
| no lysosomal labelling occurred | CCCCCCCCCCCCC/C=C/[C@@H](O)[C@H](CO)NC(=O)CCl [SOCLAC] | – |
